# Experimental data taken from PubChem BioAssay (NCI).
#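 All cell lines were grown in 96-well plates and treated with compound for 48 hours. GI50 = concentration required for 50% inhibition of growth. TGI: total growth inhibition.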
# What was measured:
# Experiment in all cases: NCI tumour cell line growth inhibition, 48 h
# A549 NSCLC = tested on: A549 NSCLC
# NCI-H226 lung = tested on: NCI-H226 lung
# NCI-H460 lung = tested on: NCI-H460 lung
# IGROV1 ovarian = tested on: IGROV1 ovarian
# K-562 leukemia = tested on: K-562 leukemia
# SK-MEL-2 melanoma = tested on: SK-MEL-2 melanoma
# DU-145 prostate = tested on: DU-145 prostate
# SW-620 colon = tested on: SW-620 colon
# M14 melanoma = tested on: M14 melanoma
# SF-295 CNS = tested on: SF-295 CNS
# HOP-92 NSCLC = tested on: HOP-92 NSCLC
# U251 CNS = tested on: U251 CNS
# SNB-75 CNS = tested on: SNB-75 CNS
# MDA-MB-231 breast = tested on: MDA-MB-231 breast
# SK-MEL-5 melanoma = tested on: SK-MEL-5 melanoma
# RXF 393 renal = tested on: RXF 393 renal
# HT29 colon = tested on: HT29 colon
# 786-0 renal = tested on: 786-0 renal
# HCT-15 colon = tested on: HCT-15 colon
# ACHN renal = tested on: ACHN renal
# OVCAR-3 ovarian = tested on: OVCAR-3 ovarian
# BT-549 breast = tested on: BT-549 breast
# KM12 colon = tested on: KM12 colon
# EKVX NSCLC = tested on: EKVX NSCLC
# LOX IMVI melanoma = tested on: LOX IMVI melanoma
# SNB-19 CNS = tested on: SNB-19 CNS
# CCRF-CEM leukemia = tested on: CCRF-CEM leukemia
# HCT-116 colon = tested on: HCT-116 colon
# SK-MEL-28 melanoma = tested on: SK-MEL-28 melanoma
# MCF7 breast = tested on: MCF7 breast
# UO-31 renal = tested on: UO-31 renal
# SK-OV-3 ovarian = tested on: SK-OV-3 ovarian
# SR leukemia = tested on: SR leukemia
# TK-10 renal = tested on: TK-10 renal
# CAKI-1 renal = tested on: CAKI-1 renal
# PC-3 prostate = tested on: PC-3 prostate
# OVCAR-5 ovarian = tested on: OVCAR-5 ovarian
# SN12C renal = tested on: SN12C renal
# T-47D breast = tested on: T-47D breast
# OVCAR-8 ovarian = tested on: OVCAR-8 ovarian
# NCI/ADR-RES ovarian = tested on: NCI/ADR-RES ovarian
# NCI-H522 lung = tested on: NCI-H522 lung
# NCI-H23 lung = tested on: NCI-H23 lung
# UACC-257 melanoma = tested on: UACC-257 melanoma
# COLO 205 colon = tested on: COLO 205 colon
# SF-268 CNS = tested on: SF-268 CNS
# HS 578T breast = tested on: HS 578T breast
# OVCAR-4 ovarian = tested on: OVCAR-4 ovarian
# HL-60(TB) leukemia = tested on: HL-60(TB) leukemia
# MALME-3M melanoma = tested on: MALME-3M melanoma
# UACC-62 melanoma = tested on: UACC-62 melanoma
# MOLT-4 leukemia = tested on: MOLT-4 leukemia
# SF-539 CNS = tested on: SF-539 CNS
# A498 renal = tested on: A498 renal
# HCC-2998 colon = tested on: HCC-2998 colon
# RPMI-8226 leukemia = tested on: RPMI-8226 leukemia
# HOP-62 NSCLC = tested on: HOP-62 NSCLC
structure (smiles),measurement,setting,value
Nc1nc2cc(O)ccc2n2cc3c(F)cccc3c12,GI50,A549 NSCLC,1.27 µM
same,TGI,A549 NSCLC,> 100 µM
same,GI50,NCI-H226 lung,2.97 µM
same,TGI,NCI-H226 lung,> 100 µM
same,GI50,NCI-H460 lung,0.402 µM
same,TGI,NCI-H460 lung,> 100 µM
same,GI50,IGROV1 ovarian,1.67 µM
same,TGI,IGROV1 ovarian,> 100 µM
same,GI50,K-562 leukemia,0.447 µM
same,TGI,K-562 leukemia,> 100 µM
same,GI50,SK-MEL-2 melanoma,3.76 µM
same,TGI,SK-MEL-2 melanoma,> 100 µM
same,GI50,DU-145 prostate,6.38 µM
same,TGI,DU-145 prostate,> 100 µM
same,GI50,SW-620 colon,0.493 µM
same,TGI,SW-620 colon,> 100 µM
same,GI50,M14 melanoma,1.24 µM
same,TGI,M14 melanoma,> 100 µM
same,GI50,SF-295 CNS,2.46 µM
same,TGI,SF-295 CNS,> 100 µM
same,GI50,HOP-92 NSCLC,2.43 µM
same,TGI,HOP-92 NSCLC,> 85.6 µM
same,GI50,U251 CNS,2.64 µM
same,TGI,U251 CNS,> 100 µM
same,GI50,SNB-75 CNS,1.44 µM
same,TGI,SNB-75 CNS,7.34 µM
same,GI50,MDA-MB-231 breast,4.74 µM
same,TGI,MDA-MB-231 breast,> 100 µM
same,GI50,SK-MEL-5 melanoma,0.334 µM
same,TGI,SK-MEL-5 melanoma,> 100 µM
same,GI50,RXF 393 renal,1.75 µM
same,TGI,RXF 393 renal,26.8 µM
same,GI50,HT29 colon,4.46 µM
same,TGI,HT29 colon,> 100 µM
same,GI50,786-0 renal,3.56 µM
same,TGI,786-0 renal,> 100 µM
same,GI50,HCT-15 colon,0.62 µM
same,TGI,HCT-15 colon,> 100 µM
same,GI50,ACHN renal,1.85 µM
same,TGI,ACHN renal,> 100 µM
same,GI50,OVCAR-3 ovarian,6.21 µM
same,TGI,OVCAR-3 ovarian,> 100 µM
same,GI50,BT-549 breast,6.92 µM
same,TGI,BT-549 breast,> 100 µM
same,GI50,KM12 colon,0.654 µM
same,TGI,KM12 colon,> 100 µM
same,GI50,EKVX NSCLC,3.38 µM
same,TGI,EKVX NSCLC,> 100 µM
same,GI50,LOX IMVI melanoma,1.02 µM
same,TGI,LOX IMVI melanoma,> 100 µM
same,GI50,SNB-19 CNS,2.31 µM
same,TGI,SNB-19 CNS,> 100 µM
same,GI50,CCRF-CEM leukemia,2.28 µM
same,TGI,CCRF-CEM leukemia,> 100 µM
same,GI50,HCT-116 colon,0.724 µM
same,TGI,HCT-116 colon,> 100 µM
same,GI50,SK-MEL-28 melanoma,4.86 µM
same,TGI,SK-MEL-28 melanoma,> 100 µM
same,GI50,MCF7 breast,1.26 µM
same,TGI,MCF7 breast,> 100 µM
same,GI50,UO-31 renal,0.917 µM
same,TGI,UO-31 renal,> 79.8 µM
same,GI50,SK-OV-3 ovarian,2.37 µM
same,TGI,SK-OV-3 ovarian,> 100 µM
same,GI50,SR leukemia,0.462 µM
same,TGI,SR leukemia,32.8 µM
same,GI50,TK-10 renal,> 20.9 µM
same,TGI,TK-10 renal,> 100 µM
same,GI50,CAKI-1 renal,0.733 µM
same,TGI,CAKI-1 renal,> 93.1 µM
same,GI50,PC-3 prostate,3.67 µM
same,TGI,PC-3 prostate,> 100 µM
same,GI50,OVCAR-5 ovarian,9.85 µM
same,TGI,OVCAR-5 ovarian,> 100 µM
same,GI50,SN12C renal,2.22 µM
same,TGI,SN12C renal,> 100 µM
same,GI50,T-47D breast,5.89 µM
same,TGI,T-47D breast,> 100 µM
same,GI50,OVCAR-8 ovarian,3.47 µM
same,TGI,OVCAR-8 ovarian,> 100 µM
same,GI50,NCI/ADR-RES ovarian,0.964 µM
same,TGI,NCI/ADR-RES ovarian,> 100 µM
same,GI50,NCI-H522 lung,1.22 µM
same,TGI,NCI-H522 lung,> 100 µM
same,GI50,NCI-H23 lung,3.91 µM
same,TGI,NCI-H23 lung,> 100 µM
same,GI50,UACC-257 melanoma,4.37 µM
same,TGI,UACC-257 melanoma,> 100 µM
same,GI50,COLO 205 colon,5.86 µM
same,TGI,COLO 205 colon,> 100 µM
same,GI50,SF-268 CNS,1.98 µM
same,TGI,SF-268 CNS,> 100 µM
same,GI50,HS 578T breast,3.68 µM
same,TGI,HS 578T breast,> 100 µM
same,GI50,OVCAR-4 ovarian,6.81 µM
same,TGI,OVCAR-4 ovarian,> 100 µM
same,GI50,HL-60(TB) leukemia,1.23 µM
same,TGI,HL-60(TB) leukemia,> 100 µM
same,GI50,MALME-3M melanoma,3.78 µM
same,TGI,MALME-3M melanoma,> 100 µM
same,GI50,UACC-62 melanoma,1.23 µM
same,TGI,UACC-62 melanoma,> 100 µM
same,GI50,MOLT-4 leukemia,1.51 µM
same,TGI,MOLT-4 leukemia,> 100 µM
same,GI50,SF-539 CNS,1.31 µM
same,TGI,SF-539 CNS,> 100 µM
same,GI50,A498 renal,10.1 µM
same,TGI,A498 renal,> 100 µM
same,GI50,HCC-2998 colon,> 20.4 µM
same,TGI,HCC-2998 colon,> 100 µM
same,GI50,RPMI-8226 leukemia,3.37 µM
same,TGI,RPMI-8226 leukemia,> 100 µM
same,GI50,HOP-62 NSCLC,2.14 µM
same,TGI,HOP-62 NSCLC,> 100 µM
